Values joined by “and” are separate entries in the source; they are usually repeats but may differ in a detail not shown here. Equal entries are not always repeated.
Assays:
SGLT1 and SGLT2 = settings: in words; cited from earlier work
[1] = tested on: nontransfected Expi293 cells (Mock); test: Nonspecific binding to crude membrane of nontransfected cells (Mock); set-up: species or system human; settings: 30 nM canagliflozin; Mock membrane
Protocol: To examine the inhibition of binding to the crude membrane, mammalian Expi293 cells were co-transfected with the hMAP17 and hSGLT2 plasmids, as described. The cells were collected and disrupted by sonication in a hypotonic buffer (50 mM HEPES–NaOH (pH 7.5), 10 mM KCl and protease inhibitor cocktail) or Na^+-free hypotonic buffer (50 mM Tris–HCl (pH 7.5), 10 mM KCl and protease inhibitor cocktail). The cell debris were removed by centrifugation (2,000g, 5 min, 4 °C). The membrane fraction was collected by ultracentrifugation (112,000g, 30 min, 4 °C) and stored at −80 °C before use. The crude membrane (250 μg per sample) was incubated with SGLT2 inhibitor in an assay buffer (100 mM NaCl and 10 mM HEPES/Tris, pH 7.4) or Na^+-free assay buffer (100 mM choline chloride and 10 mM HEPES/Tris, pH 7.4) at room temperature for 2 h. Reactions were terminated by filtration through a GF/C filter plate (Corning) presoaked in assay buffer containing 0.1% bovine serum albumin. The sample in the filter plate was washed three times with the assay buffer and eluted with acetonitrile: water (80:20, v/v). The extract solution from the filter plate was diluted with water containing candesartan as an internal standard, and the SGLT2 inhibitor concentration was quantified via LC–MS/MS.
(§1) Nonspecific binding was measured using the crude membrane of nontransfected Expi293 cells. Specific binding was calculated by subtracting nonspecific binding from the binding of hSGLT2-expressing cells. Specific binding was normalized to hSGLT2 protein expression levels, measured via FSEC. The equilibrium dissociation constant (Kd) and maximum number of binding sites (Bmax) were calculated via nonlinear regression in GraphPad Prism 8.4.3. The specific binding of the hSGLT2 mutants was normalized to the Bmax of WT hSGLT2.
The concentrations of the extract solution from the filter plate and of the cell lysate were quantified using a tandem mass spectrometry QTRAP6500 System (SCIEX) coupled with an ACQUITY UPLC system (Waters) using the internal standard method. Mobile phases A and B used 10 mM of ammonium bicarbonate and acetonitrile, respectively.

hSGLT2 F98A = target: T1, hSGLT2 F98A (Homo sapiens, UniProt P31639, F98A); test: SGLT2 inhibitor-binding assay (AS-MS), crude membrane, F98A mutant; set-up: expressed in transfected cells; host or cells: Expi293 cells, crude membrane fraction; settings: 30 nM canagliflozin, replicates
T1 sequence (P31639 1-672 F98A): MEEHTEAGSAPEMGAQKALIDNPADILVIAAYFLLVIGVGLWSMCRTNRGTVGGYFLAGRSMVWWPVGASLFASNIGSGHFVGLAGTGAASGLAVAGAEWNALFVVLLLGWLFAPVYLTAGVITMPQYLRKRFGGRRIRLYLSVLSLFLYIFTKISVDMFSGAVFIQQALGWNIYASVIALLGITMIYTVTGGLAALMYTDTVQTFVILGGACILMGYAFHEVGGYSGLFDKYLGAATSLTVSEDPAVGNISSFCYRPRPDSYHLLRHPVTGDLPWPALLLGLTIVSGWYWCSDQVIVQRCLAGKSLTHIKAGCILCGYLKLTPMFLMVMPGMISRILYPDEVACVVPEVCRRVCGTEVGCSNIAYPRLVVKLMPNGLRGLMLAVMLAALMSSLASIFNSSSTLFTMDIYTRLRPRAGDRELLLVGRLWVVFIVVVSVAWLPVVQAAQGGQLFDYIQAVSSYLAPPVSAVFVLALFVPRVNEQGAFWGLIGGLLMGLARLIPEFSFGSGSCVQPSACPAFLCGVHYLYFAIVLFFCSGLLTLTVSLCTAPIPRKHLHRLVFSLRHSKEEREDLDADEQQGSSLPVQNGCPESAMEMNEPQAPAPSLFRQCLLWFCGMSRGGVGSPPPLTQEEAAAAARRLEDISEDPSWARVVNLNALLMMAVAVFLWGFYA
T1 sequence (Q13113 1-114 partner): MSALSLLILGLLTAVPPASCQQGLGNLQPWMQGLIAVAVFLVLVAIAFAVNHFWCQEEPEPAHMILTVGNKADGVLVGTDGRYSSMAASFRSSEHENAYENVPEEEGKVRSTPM
Excerpt: (§2) hSGLT2 complementary DNA and human MAP17 cDNA were synthesized and codon-optimized for expression in human cell lines. Both cDNAs were cloned into the pcDNA3.4 vector. The hSGLT2 sequence was fused with an N-terminal signal sequence from human trypsinogen 1, a His10 tag, and sfGFP, followed by a human rhinovirus 3C protease (HRV3C protease) recognition site. Point mutations were introduced into this construct using site-directed mutagenesis. These plasmids were utilized for all experimental procedures conducted in this study.
To examine the inhibition of binding to the crude membrane, mammalian Expi293 cells were co-transfected with the hMAP17 and hSGLT2 plasmids, as described. […] The extract solution from the filter plate was diluted with water containing candesartan as an internal standard, and the SGLT2 inhibitor concentration was quantified via LC–MS/MS.
as §1, with “The specific binding of the hSGLT2 mutants was normalized to the Bmax of WT hSGLT2.” left out

hSGLT2 S74A = target: T2, hSGLT2 S74A (Homo sapiens, UniProt P31639, S74A); test: cell-based
T2 construct: expressed in transfected cells; host or cells: Expi293 cells, crude membrane fraction
T2 sequence (P31639 whole entry S74A, one chain of several): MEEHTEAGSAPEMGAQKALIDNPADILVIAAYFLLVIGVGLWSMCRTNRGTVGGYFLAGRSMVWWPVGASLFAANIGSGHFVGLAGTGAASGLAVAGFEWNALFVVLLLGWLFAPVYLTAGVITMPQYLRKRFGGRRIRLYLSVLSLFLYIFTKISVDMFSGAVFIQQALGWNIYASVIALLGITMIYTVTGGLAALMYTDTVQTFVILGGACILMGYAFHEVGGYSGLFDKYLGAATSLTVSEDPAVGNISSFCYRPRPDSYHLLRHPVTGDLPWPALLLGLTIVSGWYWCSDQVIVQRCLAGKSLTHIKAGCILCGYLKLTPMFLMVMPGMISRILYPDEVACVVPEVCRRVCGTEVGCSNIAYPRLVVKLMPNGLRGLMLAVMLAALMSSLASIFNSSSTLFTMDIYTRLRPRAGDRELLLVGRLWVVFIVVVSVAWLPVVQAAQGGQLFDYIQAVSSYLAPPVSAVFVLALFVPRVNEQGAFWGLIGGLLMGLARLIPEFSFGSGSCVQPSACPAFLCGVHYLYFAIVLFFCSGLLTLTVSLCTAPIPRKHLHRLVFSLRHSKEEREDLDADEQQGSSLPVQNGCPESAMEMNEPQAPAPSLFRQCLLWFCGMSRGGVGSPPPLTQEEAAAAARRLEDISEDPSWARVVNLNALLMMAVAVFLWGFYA
Excerpt: as §2
HEK293 cells (ECACC 85120602) were maintained in Dulbecco’s modified Eagle medium (Gibco) supplemented with 10% fetal bovine serum (Thermo Scientific), 2 mM L-glutamine, 100 U ml^−1 benzylpenicillin and 100 µg ml^−1 streptomycin at 37 °C in a humidified atmosphere (5% CO2 in air). HEK293 cells were seeded at 1.0 × 10^5 cells per well in poly-L-lysine coated 24-well plates. […]
Cell lysates were deproteinized by adding acetonitrile containing candesartan as the internal standard. The α-MG concentration was quantified via liquid chromatography–tandem mass spectrometry (LC–MS/MS) using the internal standard method.
Cellular protein content was determined using a bicinchoninic acid protein assay kit (Thermo Fisher Scientific). The uptake of α-MG was expressed as the ratio of concentration in the cells (in pmol per mg protein) to concentration in the medium (in pmol μl^−1); this is known as the cell-to-medium ratio (in μl per mg protein).
In the inhibition study, the cell-to-medium ratio of cells transfected with the empty vector was used as the background. The specific α-MG uptake was calculated by subtracting this background from the total cell-to-medium ratio and normalized to the uptake achieved without the inhibitor. IC50 was calculated via nonlinear regression using GraphPad Prism 8.4.3.
The concentrations of the extract solution from the filter plate and of the cell lysate were quantified using a tandem mass spectrometry QTRAP6500 System (SCIEX) coupled with an ACQUITY UPLC system (Waters) using the internal standard method. […]

Q: With Cc1ccc([C@@H]2O[C@H](CO)[C@@H](O)[C@H](O)[C@H]2O)cc1Cc1ccc(-c2ccc(F)cc2)s1 [Canagliflozin] as the compound, how does the “subtype specificity of inhibition (SGLT1 vs SGLT2)” value (SGLT1 and SGLT2) read?
A: SGLT2-specific inhibition

Q: What about the “Canagliflozin binding (% of hSGLT2)” value [1] of the same compound?
A: 2.562 % of hSGLT2 and 2.489 % of hSGLT2 and 1.993 % of hSGLT2

Q: What about the “Canagliflozin binding (% of WT)” value (hSGLT2 F98A) of the same compound?
A: -6.142 % of WT and -5.964 % of WT and -3.041 % of WT

Q: For O=C(CCc1ccc(O)cc1)c1c(O)cc(O)cc1O[C@@H]1O[C@H](CO)[C@@H](O)[C@H](O)[C@H]1O [Phlorizin], which remaining activity at 0.003 µM (hSGLT2 S74A; HEK293, read-out: α-MG uptake (% of control), Phlorizin 3 nM) is on record?
A: 95.3%

Q: What about the remaining activity at 0.03 µM (hSGLT2 S74A; HEK293, read-out: α-MG uptake (% of control), Phlorizin 30 nM) of the same compound?
A: 80.6%

Q: What about the remaining activity at 0.1 µM (hSGLT2 S74A; HEK293, read-out: α-MG uptake (% of control), Phlorizin 100 nM) of the same compound?
A: 70.1%

Reference: paper PMC10803289, “Transport and inhibition mechanism of the human SGLT2–MAP17 glucose transporter” (Nature Structural & Molecular Biology, 2023)
